{"source": "patent US10889556B2", "about": "“Compositions and methods for inhibiting influenza RNA polymerase PA endonuclease” (The Regents of the University of California, priority 2016, dated 2021)", "data": [{"biological_target": "influenza PA endonuclease (Influenza A virus, UniProt C3W5S0)", "test": "biochemical", "design": "species or system Pandemic H1N1 influenza A", "details": "not given", "units": {"IC50": "µM"}, "values": [{"compound": "CNC(=O)c1occc(=O)c1O", "note": "[A11]", "IC50": 4.1}, {"compound": "CNC(=O)c1[nH]ccc(=O)c1O", "note": "[B4]", "IC50": 13}, {"compound": "Cc1occ(O)c(=O)c1C(=O)NCCc1ccccc1", "note": "[Compound 13, 5-Hydroxy-2-methyl-4-oxo-N-phenethyl-4H-pyran-3-carboxamide]", "IC50": "11.3 ± 1.2"}, {"compound": "COc1cccc(CNC(=O)c2c(C)occ(O)c2=O)c1", "note": "[Compound 18, 5-Hydroxy-N-(3-methoxybenzyl)-2-methyl-4-oxo-4H-pyran-3-carboxamide]", "IC50": "22.1 ± 0.6"}, {"compound": "O=c1cc(CNCc2ccccc2)occ1O", "note": "[Compound 26, 2-((Benzylamino)methyl)-5-hydroxy-4H-pyran-4-one]", "IC50": "2.7 ± 0.4"}, {"compound": "CS(=O)(=O)NCc1cc(=O)c(O)co1", "note": "[Compound 30]", "IC50": "4.8 ± 0.7"}, {"compound": "CN(Cc1cc(=O)c(O)co1)c1ccc(F)cc1", "note": "[Compound 39, 2-(((4-Fluorophenyl)(methyl)amino)methyl)-5-hydroxy-4H-pyran-4-one]", "IC50": "1.8 ± 0.2"}, {"compound": "CN(Cc1cc(=O)c(O)co1)c1cccc(F)c1", "note": "[Compound 40, 2-(((3-Fluorophenyl)(methyl)amino)methyl)-5-hydroxy-4H-pyran-4-one]", "IC50": "3.2 ± 0.1"}, {"compound": "CN(Cc1cc(=O)c(O)co1)c1ccncc1", "note": "[Compound 41, 5-Hydroxy-2-((methyl(pyridin-4-yl)amino)methyl)-4H-pyran-4-one]", "IC50": "> 100"}, {"compound": "Cc1c(O)c(=O)ccn1-c1ccccc1", "note": "[Compound 45, 3-Hydroxy-2-methyl-1-phenylpyridin-4(1H)-one]", "IC50": "18 ± 2"}, {"compound": "Cc1c(O)c(=O)ccn1C1CCCCC1", "note": "[Compound 48, 1-Cyclohexyl-3-hydroxy-2-methylpyridin-4(1H)-one]", "IC50": "14 ± 3"}, {"compound": "Cc1cc(=O)c(O)cn1C1CCOCC1", "note": "[Compound 51]", "IC50": "0.73 ± 0.07"}, {"compound": "COc1cc(C)c(C(=O)O)cc(O)c1=O", "note": "[Compound 105]", "IC50": 0.18, "LE": 0.66}, {"compound": "O=C(O)c1ccc(O)c(O)c1", "note": "[Compound 107]", "IC50": 0.22, "LE": 0.83}, {"compound": "CC(C)c1cccc(=O)c(O)c1", "note": "[E4]", "IC50": 11}, {"compound": "CCOC(=O)c1c(C)n(-c2ccccc2)cc(O)c1=O", "note": "[compound 67, Ethyl 5-hydroxy-2-methyl-4-oxo-1-phenyl-1,4-dihydropyridine-3-carboxylate]", "IC50": "5.3 ± 0.4"}, {"compound": "CCOC(=O)c1c(C)n(-c2ccc(Oc3ccccc3)cc2)cc(O)c1=O", "note": "[compound 68, Ethyl 5-hydroxy-2-methyl-4-oxo-1-(4-phenoxyphenyl)-, 4-dihydropyridine-3-carboxylate]", "IC50": "5.2 ± 0.8"}, {"compound": "O=c1cc(Br)[nH]c(-c2nnn[nH]2)c1O", "note": "[compound 133, 6-Bromo-3-hydroxy-2-(1H-tetrazol-5-yl)pyridin-4(1H)-one]", "IC50": 0.063}, {"compound": "O=C(O)c1[nH]c(-c2ccccc2)cc(=O)c1O", "note": "[compound 142, 3-Hydroxy-4-oxo-6-phenyl-1,4-dihydropyridine-2-carboxylic acid]", "IC50": 0.0056}, {"compound": "O=C(O)c1[nH]c(-c2ccc(Oc3ccccc3)cc2)cc(=O)c1O", "note": "[compound 143, 3-Hydroxy-4-oxo-6-(4-phenoxyphenyl)-1,4-dihydropyridine-2-carboxylic acid]", "IC50": 0.022}, {"compound": "O=C(O)c1ccc(-c2cc(=O)c(O)c(C(=O)O)[nH]2)cc1", "note": "[compound 144, 6-(4-carboxyphenyl)-3-hydroxy-4-oxo-1,4-dihydropyridine-2-carboxylic acid]", "IC50": 0.0016}, {"compound": "O=C(O)c1cccc(-c2cc(=O)c(O)c(C(=O)O)[nH]2)c1", "note": "[compound 145, 6-(3-carboxyphenyl)-3-hydroxy-4-oxo-1,4-dihydropyridine-2-carboxylic acid]", "IC50": 0.002}, {"compound": "Cc1cccc(-c2cc(=O)c(O)c(C(=O)O)[nH]2)c1", "note": "[compound 146, 3-hydroxy-4-oxo-6-(m-tolyl)-1,4-dihydropyridine-2-carboxylic acid]", "IC50": 0.0048}, {"compound": "O=C(O)c1[nH]c(-c2ccc(-c3nnn[nH]3)cc2)cc(=O)c1O", "note": "[compound 148, 6-(4-(1H-tetrazol-5-yl)phenyl)-3-hydroxy-4-oxo-1,4-dihydropyridine-2-carboxylic acid]", "IC50": 0.0019}, {"compound": "O=c1cc[nH]c(-c2ncco2)c1O", "note": "[compound 151]", "IC50": 0.071}, {"compound": "O=c1cccccc1O", "note": "[compound 201]", "IC50": 8.8}, {"compound": "Cc1cc(O)c(=O)c(O)cc1-c1ccccc1", "note": "[compound 213, 2,7-Dihydroxy-4-methyl-5-phenylcyclohepta-2,4,6-trien-1-one]", "IC50": 0.005}]}, {"biological_target": "influenza PA endonuclease (Influenza A virus, UniProt C3W5S0)", "test": "biochemical", "design": "species or system Pandemic H1N1 influenza A", "details": "IC50 value", "units": {"IC50": "µM"}, "values": [{"compound": "O=C(O)c1[nH]c(Br)cc(=O)c1O", "note": "[compound 131, 6-Bromo-3-hydroxy-4-oxo-1,4-dihydropyridine-2-carboxylic acid]", "IC50": 0.025}]}]}
